Measurements as given in ChEMBL document CHEMBL1201862, “PubChem BioAssay data set” (2004).
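Interpolation was linear, between the two tested concentrations surrounding the appropriate level; five concentrations were tested over 48 hours in 96-well plates. Abbreviation: GI50, concentration required for 50% inhibition of growth.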 Activity calls are given as the source filed them. No stated cut-off is given here; in the data, active = GI50 up to about 1.1 µM and inactive = higher.

What was measured:
Test in all cases: NCI anticancer screen, dose series, 48 h
SK-MEL-28 = system: SK-MEL-28
786-0 = system: 786-0
Malme-3M = system: Malme-3M
RPMI-8226 = system: RPMI-8226
M14 = system: M14
K562 = system: K562
NCI-H460 = system: NCI-H460
OVCAR-5 = system: OVCAR-5
T47D = system: T47D
SNB-19 = system: SNB-19
A498 = system: A498
SF-539 = system: SF-539
MCF7 = system: MCF7
NCI-H23 = system: NCI-H23
HL-60 = system: HL-60
OVCAR-8 = system: OVCAR-8
Hs-578T = system: Hs-578T
SNB-75 = system: SNB-75
LOX IMVI = system: LOX IMVI
DU-145 = system: DU-145
TK-10 = system: TK-10
SR = system: SR
SK-OV-3 = system: SK-OV-3
NCI-H226 = system: NCI-H226
MDA-N = system: MDA-N
SK-MEL-2 = system: SK-MEL-2
UACC-62 = system: UACC-62
SN12C = system: SN12C
MOLT-4 = system: MOLT-4
UO-31 = system: UO-31
HT-29 = system: HT-29
NCI/ADR-RES = system: NCI/ADR-RES
UACC-257 = system: UACC-257
SF-295 = system: SF-295
A549 = system: A549
U-251 = system: U-251
SF-268 = system: SF-268
HCT-15 = system: HCT-15
SW-620 = system: SW-620
ACHN = system: ACHN
IGROV-1 = system: IGROV-1
MDA-MB-435 = system: MDA-MB-435
COLO 205 = system: COLO 205
HOP-62 = system: HOP-62
OVCAR-3 = system: OVCAR-3
RXF 393 = system: RXF 393
MDA-MB-231 = system: MDA-MB-231
BT-549 = system: BT-549
PC-3 = system: PC-3
NCI-H522 = system: NCI-H522
HCT-116 = system: HCT-116
CAKI-1 = system: CAKI-1
SK-MEL-5 = system: SK-MEL-5
KM12 = system: KM12
CCRF-CEM = system: CCRF-CEM
HOP-92 = system: HOP-92
EKVX = system: EKVX
HCC 2998 = system: HCC 2998

Structure (SMILES): CN(C)N1C(=O)CC2(CCN(CCCC(=O)c3ccc(F)cc3)CC2)C1=O
- GI50 (SK-MEL-28): > 100 µM (inactive)
- GI50 (786-0): > 100 µM (inactive)
- GI50 (Malme-3M): > 100 µM (inactive)
- GI50 (RPMI-8226): > 100 µM (inactive)
- GI50 (M14): > 100 µM (inactive)
- GI50 (K562): > 100 µM (inactive)
- GI50 (NCI-H460): > 100 µM (inactive)
- GI50 (OVCAR-5): > 100 µM (inactive)
- GI50 (T47D): > 100 µM (inactive)
- GI50 (SNB-19): > 100 µM (inactive)
- GI50 (A498): > 100 µM (inactive)
- GI50 (SF-539): > 100 µM (inactive)
- GI50 (MCF7): > 100 µM (inactive)
- GI50 (NCI-H23): > 100 µM (inactive)
- GI50 (HL-60): > 100 µM (inactive)
- GI50 (OVCAR-8): > 100 µM (inactive)
- GI50 (Hs-578T): > 100 µM (inactive)
- GI50 (SNB-75): > 100 µM (inactive)
- GI50 (LOX IMVI): > 100 µM (inactive)
- GI50 (DU-145): > 100 µM (inactive)
- GI50 (TK-10): > 100 µM (inactive)
- GI50 (SR): > 100 µM (inactive)
- GI50 (SK-OV-3): > 100 µM (inactive)
- GI50 (NCI-H226): > 100 µM (inactive)
- GI50 (MDA-N): > 100 µM (inactive)
- GI50 (SK-MEL-2): > 100 µM (inactive)
- GI50 (UACC-62): > 100 µM (inactive)
- GI50 (SN12C): > 100 µM (inactive)
- GI50 (MOLT-4): > 100 µM (inactive)
- GI50 (UO-31): > 100 µM (inactive)
- GI50 (HT-29): > 100 µM (inactive)
- GI50 (NCI/ADR-RES): > 100 µM (inactive)
- GI50 (UACC-257): > 100 µM (inactive)
- GI50 (SF-295): > 100 µM (inactive)
- GI50 (A549): > 100 µM (inactive)
- GI50 (U-251): > 100 µM (inactive)
- GI50 (SF-268): > 100 µM (inactive)
- GI50 (HCT-15): > 100 µM
- GI50 (SW-620): > 100 µM (inactive)
- GI50 (ACHN): > 100 µM (inactive)
- GI50 (IGROV-1): > 100 µM (inactive)
- GI50 (MDA-MB-435): > 100 µM (inactive)
- GI50 (COLO 205): > 100 µM (inactive)
- GI50 (HOP-62): > 100 µM (inactive)
- GI50 (OVCAR-3): > 100 µM (inactive)
- GI50 (RXF 393): > 100 µM (inactive)
- GI50 (MDA-MB-231): > 100 µM (inactive)
- GI50 (BT-549): > 100 µM (inactive)
- GI50 (PC-3): > 100 µM (inactive)
- GI50 (NCI-H522): > 100 µM (inactive)
- GI50 (HCT-116): > 100 µM (inactive)
- GI50 (CAKI-1): > 100 µM (inactive)
- GI50 (SK-MEL-5): > 100 µM (inactive)
- GI50 (KM12): > 100 µM (inactive)

Structure (SMILES): N#CC1(C#N)C2CCCCC23OC(=N)C1(C#N)C(c1ccco1)O3 (configuration not stated)
- GI50 (SK-MEL-28): 15.6 µM (inactive)
- GI50 (786-0): 14.5 µM (inactive)
- GI50 (Malme-3M): 23.7 µM (inactive)
- GI50 (M14): 20.4 µM (inactive)
- GI50 (K562): 8.38 µM (inactive)
- GI50 (NCI-H460): 25.8 µM (inactive)
- GI50 (OVCAR-5): 24.9 µM (inactive)
- GI50 (T47D): 17.6 µM (inactive)
- GI50 (SNB-19): 31.6 µM (inactive)
- GI50 (A498): 21.9 µM (inactive)
- GI50 (SF-539): 23.8 µM (inactive)
- GI50 (MCF7): 21.9 µM (inactive)
- GI50 (NCI-H23): 26.1 µM (inactive)
- GI50 (OVCAR-8): 23.2 µM (inactive)
- GI50 (Hs-578T): 30.8 µM (inactive)
- GI50 (SNB-75): 55.5 µM (inactive)
- GI50 (LOX IMVI): 17.2 µM (inactive)
- GI50 (DU-145): 25.9 µM (inactive)
- GI50 (TK-10): 17.1 µM (inactive)
- GI50 (SK-OV-3): > 100 µM (inactive)
- GI50 (NCI-H226): > 100 µM (inactive)
- GI50 (MDA-N): 17.4 µM (inactive)
- GI50 (SK-MEL-2): 17.6 µM (inactive)
- GI50 (UACC-62): 16.6 µM (inactive)
- GI50 (SN12C): 14.8 µM (inactive)
- GI50 (MOLT-4): 23 µM (inactive)
- GI50 (UO-31): 30.3 µM (inactive)
- GI50 (HT-29): 26.7 µM (inactive)
- GI50 (NCI/ADR-RES): 44.3 µM (inactive)
- GI50 (CCRF-CEM): 10.5 µM (inactive)
- GI50 (UACC-257): 17.7 µM (inactive)
- GI50 (SF-295): > 100 µM (inactive)
- GI50 (A549): > 100 µM (inactive)
- GI50 (U-251): > 10 µM (inactive)
- GI50 (SF-268): 30.8 µM (inactive)
- GI50 (HOP-92): 13.8 µM (inactive)
- GI50 (HCT-15): 9.23 µM
- GI50 (SW-620): 7.76 µM (inactive)
- GI50 (ACHN): 28.5 µM (inactive)
- GI50 (EKVX): 25.8 µM (inactive)
- GI50 (IGROV-1): 18.3 µM (inactive)
- GI50 (MDA-MB-435): 19.8 µM (inactive)
- GI50 (COLO 205): 11.9 µM (inactive)
- GI50 (OVCAR-3): 16.1 µM (inactive)
- GI50 (RXF 393): 21.7 µM (inactive)
- GI50 (HCC 2998): 15.1 µM (inactive)
- GI50 (MDA-MB-231): 16.7 µM (inactive)
- GI50 (BT-549): 15.6 µM (inactive)
- GI50 (PC-3): 23 µM (inactive)
- GI50 (HCT-116): 17.4 µM (inactive)
- GI50 (CAKI-1): 11.6 µM (inactive)
- GI50 (SK-MEL-5): 15.5 µM (inactive)
- GI50 (KM12): 33.8 µM (inactive)
